Marks after values point to notes of the source that are not given here.
What was measured:
[1] = test system: male C57bl/6J mice fed very high-fat diet (diet induced diabetes); assay: Blood glucose levels in food restricted high-fat-diet (diabetic) C57BL/6J mice after gavage, vehicle 66% LABRASOL; type: in vivo, mouse; details: for Hypoglycemic activity (in words): 300 mg/kg; for % decrease from 0 h / Blood glucose, 6 hours: 6 hours
Description: The C57B6 mouse strain becomes diabetic when maintained on a high fat diet, it therefore serves as a model for Type 2 diabetes. A screen for treatments effective against diet induced diabetes utilizes male C57BL/6J mice (4-5 week old, 19-20 g) fed a high-fat diet (60% fat in kcal) for 10-16 weeks. This diet induces obesity and diabetes in this mouse strain. Extracts that induce a 20-40% decline in the blood glucose level are used for further testing.
Five-week-old male C57bl/6J mice were purchased from Jackson Labs (Maine) and were acclimatized for 1 week before being randomly assigned into the experimental groups. The animals were housed four to a cage with free access to water in a room with a 12:12 hour light-dark cycle (7:00 AM-7:00 PM), a temperature of 24±1° C., and the animals were weighed weekly. During the acclimatization period, each animal was fed a regular diet ad libitum. At 6-weeks old, the mice were randomly divided into two groups: low fat or very high fat fed groups. The mice continued to receive either a low fat diet (LFD) or very high-fat diet (VHFD) for a 12-week period. The high-fat diet food was purchased from Research Diets Inc., and the nutrition content of very high-fat diet food was similar to that of the low fat diet food except that carbohydrates were lower (70 kcal % vs. 20 kcal %) and the addition of more lard (10 kcal % vs. 60 kcal %) in the diet. Body weights were measured weekly, and at every other week blood was collected for blood glucose analysis. […] Animals fed with LFD were also fasted for 4 hours. […] As a positive control, metformin (Fortamet®, Gluocphase®, Glumetza®, Romet®) was administered instead of plant extract at a dose of 300 mg/kg (MET300). […] Without being limited by theory, metformin may act by increasing insulin sensitivity via increasing the utilization of glucose. The experimental protocols were approved by Rutgers University Institutional Care and Use Committee and followed federal, and state laws.
All treatments were provided by gavage with a vehicle of 66% LABRASOL®, a lipid-based self-emulsifying excipient. Abbreviations for Table 1 are as follows: FC=crude extract, F2=anthocyanin enriched extract, FT=treated extract to promote chalcone formation, metformin is a drug used as a positive control. The results were as follows:
All treatments were provided by gavage with a vehicle of 66% LABRASOL®. Abbreviations for Table 2 are as follows: FC=crude extract, F2=anthocyanin-enriched extract, FT=treated extract to promote chalcone formation, metformin is a drug used as a positive control; *:p<0.05; **:p<0.01; ***:p<0.001 vs 0 hours; c:p<0.05; cc:p<0.01; ccc:p<0.001 vs LABRASOL®. The results were as follows:
All treatments were provided by gavage with a vehicle of 66% LABRASOL®. Abbreviations for Table 3 are as follows: FT=treated extract to promote chalcone formation, F2=anthocyanin enriched extract, MBCE=maqui berry crude extract, MBA=maqui berry anthocyanin-rich extract, metformin is a drug used as a positive control; *:p<0.05; **:p<0.01; ***:p<0.001 vs. 0 hours; c:p<0.05; cc:p<0.01; ccc:p<0.001 vs. LABRASOL®.
The hypoglycemic effects of delphinidin-3-glucoside (Dp 3-glc) and malvidin-3-glucoside (Mv-3-glc) relative to blueberry anthocyanin-enriched extracts and metformin in insulin resistant C57bl/6J mice were investigated. Malvidin glycosides are the predominant anthocyanins of the lowbush blueberry extracts. Delphinidin-3-glucoside likely is a major component of the blueberry extracts. It is reported to be the active hypoglycemic compound from the leaves of Vaccinium species. The animals were maintained on a high fat diet and food restricted 4 hours prior to treatment by gavage. The extracts and metformin were formulated with 66% Labrasol as the delivery vehicle

[2] = test system: food restricted C57B6 mice; assay: Blood glucose levels in food restricted C57B6 mice using water as the gavage vehicle; type: in vivo, mouse; details: Table 5, 300 mg/kg gavage
Method: Five-week-old male C57bl/6J mice were purchased from Jackson Labs (Maine) and were acclimatized for 1 week before being randomly assigned into the experimental groups. The animals were housed four to a cage with free access to water in a room with a 12:12 hour light-dark cycle (7:00 AM-7:00 PM), a temperature of 24±1° C., and the animals were weighed weekly. During the acclimatization period, each animal was fed a regular diet ad libitum. At 6-weeks old, the mice were randomly divided into two groups: low fat or very high fat fed groups. The mice continued to receive either a low fat diet (LFD) or very high-fat diet (VHFD) for a 12-week period. The high-fat diet food was purchased from Research Diets Inc., and the nutrition content of very high-fat diet food was similar to that of the low fat diet food except that carbohydrates were lower (70 kcal % vs. 20 kcal %) and the addition of more lard (10 kcal % vs. 60 kcal %) in the diet. Body weights were measured weekly, and at every other week blood was collected for blood glucose analysis. Animals fed with VHFD were fasted for 4 hours and fed orally (gavage) with plant extracts (500 mg/kg) or […] to test efficacy of plant extracts. Animals fed with LFD were also fasted for 4 hours. Blood glucose readings are made 0 hours, 3 hours, and 6 hours after treatment (animals were fasted during the testing period). As a positive control, metformin (Fortamet®, Gluocphase®, Glumetza®, Romet®) was administered instead of plant extract at a dose of 300 mg/kg (MET300). […] Without being limited by theory, metformin may act by increasing insulin sensitivity via increasing the utilization of glucose. The experimental protocols were approved by Rutgers University Institutional Care and Use Committee and followed federal, and state laws.
The MBA was active at both 500 mg/kg and 250 mg/kg. Therefore, the use of Labrasol as a bioenhancing agent dose was not necessary with the MBA. A robust response was seen when Labrasol was not included in the dosing vehicle.

[3] = Example 3, 300 mg/kg by gavage with Labrasol, insulin resistant C57bl/6J mice
[4] = Table 4, insulin resistant C57bl/6J mice, 300 mg/kg gavage in 66% Labrasol
[5] = Table 2, 300 mg/kg gavage in 66% LABRASOL
[6] = Table 3, 250 mg/kg gavage in 66% LABRASOL

Structure (SMILES): OC[C@H]1O[C@@H](Oc2cc3c(O)cc(O)cc3[o+]c2-c2cc(O)c(O)c(O)c2)[C@H](O)[C@@H](O)[C@@H]1O [Dp 3-glc, delphinidin-3-glucoside]
- Hypoglycemic activity (in words) [1, 3]: did not significantly show hypoglycemic activity
- Hypoglycemic activity (in words) ([1]; Example 3, 300 mg/kg by gavage with Labrasol, insulin resistant C57bl/6J mice, listed as delphinidin-3-O-glucoside): did not have significant hypoglycemic activity
- Blood glucose, 0 hours [1, 4]: 214 ± 7.4
- % decrease from 0 h [1, 4]: −17 ± 5.7%
- Blood glucose, 6 hours [1, 4]: 186.6 ± 15.5

Structure (SMILES): CN(C)C(=N)N=C(N)N [Metformin, metformin]
- Blood glucose, 0 hours ([2]; 0 hours): 189 ± 11.1
- % decrease from 0 hours ([2]; 6 hours): −43.4 ± 7.8%
- Blood glucose, 6 hours ([2]; 6 hours): 106.8 ± 14.2
- Blood glucose, 0 hours ([1]; Table 1, 300 mg/kg gavage in 66% LABRASOL): 226 ± 18
- Blood glucose, 2 hours ([1]; Table 1, 300 mg/kg gavage in 66% LABRASOL, 2 hours): 183 ± 25
- Blood glucose, 4 hours ([1]; Table 1, 300 mg/kg gavage in 66% LABRASOL, 4 hours): 165 ± 29
- % decrease from 0 hours ([1]; Table 1, 300 mg/kg gavage in 66% LABRASOL, last time point 4 hours): −27%
- Blood glucose, 0 hours [1, 5]: 207 ± 18
- Blood glucose, 3 hours [1, 5]: 211 ± 15
- Blood glucose, 5 hours ([1]; Table 2, 300 mg/kg gavage in 66% LABRASOL, 5 hours): 128 ± 17**^cc
- % decrease from 0 hours ([1]; Table 2, 300 mg/kg gavage in 66% LABRASOL, last time point 5 hours): −38%
- Blood glucose, 0 hours [1, 6]: 249 ± 29
- Blood glucose, 3 hours [1, 6]: 273 ± 32
- Blood glucose, 6 hours [1, 6]: 214 ± 39
- % decrease from 0 hours ([1]; Table 3, 250 mg/kg gavage in 66% LABRASOL, last time point 6 hours): −14%
- Blood glucose, 0 hours [1, 4]: 206.7 ± 11
- % decrease from 0 h [1, 4]: −49 ± 4.5%
- Blood glucose, 6 hours [1, 4]: 108 ± 8.9

Structure (SMILES): COc1cc(-c2[o+]c3cc(O)cc(O)c3cc2O[C@@H]2O[C@H](CO)[C@@H](O)[C@H](O)[C@H]2O)cc(OC)c1O [Mv-3-glc, malvidin-3-glucoside]
- Lowered blood glucose levels by ([1]; Example 3, 300 mg/kg by gavage with Labrasol): 34%
- Hypoglycemic activity (in words) [1, 3]: comparable to the hypoglycemic activity of the phenolics-rich extract at a dose of 500 mg/kg
- Hypoglycemic activity (in words) ([1]; Example 3, 300 mg/kg by gavage with Labrasol, insulin resistant C57bl/6J mice, listed as malvidin glucoside): comparable to the metformin positive control at 300 mg/kg
- Blood glucose, 0 hours [1, 4]: 204 ± 20.8
- % decrease from 0 h [1, 4]: −31 ± 6.3%
- Blood glucose, 6 hours [1, 4]: 134.4 ± 8.3

— patent US20090176718A1, “Berry Preparations For Treatment Of Diabetes And Metabolic Syndrome” (priority 2007, published 2009)
